Data as given in paper PMC4046051, “Two M-T hook residues greatly improve the antiviral activity and resistance profile of the HIV-1 fusion inhibitor SC29EK” (Retrovirology, 2014).
Peptide text beside a SMILES is read from it.

How the values were obtained:
[1] = molecular target: T1, NHR peptide N36 (HIV-1 gp41) (Human immunodeficiency virus type 1 group M subtype B, UniProt P04578); test: CD thermal denaturation of 6-HB formed by CHR peptide and N36; type: binding; conditions: CHR peptide + N36, each 10 μM in PBS pH 7.2; CD at 222 nm, 20-98°C
T1 construct: made in house; host or cells: chemical synthesis (solid-phase FMOC), no expression host
Experimental: CD spectroscopy was performed according to our protocols described previously. […] The final concentration of each peptide was 10 μM in PBS buffer (pH 7.2). The CD spectra were acquired on a Jasco spectropolarimeter (model J-815) using a 1 nm bandwidth with a 1 nm step resolution from 195 to 260 nm at room temperature. The spectra were corrected by subtraction of a blank corresponding to the solvent. Data were averaged over three accumulations. The α-helical content was calculated from the CD signal by dividing the mean residue ellipticity [θ] at 222 nm by the value expected for 100% helix formation (-33,000 degrees.cm^2.dmol^-1). The thermal denaturation experiment was performed by monitoring the change in ellipticity [θ] at 222 nm at the increasing temperature (20–98°C) using temperature controller. The temperature was increased at a rate of 1.2°C per min; data were acquired at a 1 nm bandwidth at 222 nm at a frequency of 0.25 Hz. The melting curve was smoothened, and the midpoint of the thermal unfolding transition (Tm) values were taken as the maximum of the derivative d [θ]222/dT. The Tm value was detected at a peptide concentration of 10 μM in PBS buffer.

[2] = molecular target: T1, NHR peptide N36 (HIV-1 gp41); test: Isothermal titration calorimetry (ITC) with N36; type: binding; conditions: 25°C
Experimental: ITC assay was performed using an ITC200 Microcalorimeter instrument (MicroCal, USA) as described previously. In brief, 1 mM N36 dissolved in ddH20 was injected into the chamber containing 100 μM SC29EK or MT-SC29EK. The experiments were carried out at 25°C. The time between injections was 240 s and the stirring speed was 500 rpm. The heats of dilution were determined in control experiments by injecting N36 into ddH20 and subtracted from the heats produced in the corresponding peptide-peptide binding experiments. Data acquisition and analysis were performed using MicroCal Origin software (version 7.0).

[3] = molecular target: T2, six-helical bundle (6-HB) of N36 and biotinylated-C34 (Human immunodeficiency virus type 1 group M subtype B, UniProt P04578); test: Inhibition of 6-HB formation, NC-1 capture ELISA; type: biochemical, HIV-1
T2 construct: made in house; host or cells: chemical synthesis (solid-phase FMOC), no expression host
Experimental: The 6-HB core-specific monoclonal antibody NC-1 was obtained from Dr. Shibo Jiang in the New York Blood Center (New York, NY) through the ARRRP, Division of AIDS, NIAID, National Institute of Health. The inhibitory activity of SC29EK or MT-SC29EK on the 6-HB formation was measured by a modified ELISA as previously described. Briefly, a 96-well polystyrene plate was coated with 2 μg/ml NC-1 in 0.1 M Tris buffer (pH 8.8). A tested peptide at graded concentrations was mixed with the biotinylated-C34 (0.1 μM) and incubated with N36 (0.1 μM) at room temperature for 30 min. The mixture was then added to the NC-1-coated plate, followed by incubation for 30 min and washing with a washing buffer (PBS containing 0.1% Tween 20) three times. Then horseradish peroxidase (HRP)-labeled streptavidin (Invitrogen) and the substrate 3,3,5,5- tetramethylbenzidine (Sigma) were sequentially added. Absorbance at 450 nm (A450) was measured using an ELISA reader.

[4] = system: HIV-1NL4-3 pseudovirus; type: cell-based
Experimental: (§1) The inhibition of peptides on the HIV-1 entry was determined by single-cycle infection assay as described previously. Briefly, HIV-1 pseudovirus was generated by cotransfecting 293 T cells with an Env-expressing plasmid and a backbone plasmid pSG3^Δenv that encodes Env-defective, luciferase-expressing HIV-1 genome. The supernatants were harvested and filtered 48 h after transfection and 50% tissue culture infectious dose (TCID50) was determined in TZM-bl cells. The peptides were prepared with 3-fold dilutions and mixed with 100 TCID50 viruses and then incubated 1 h at room temperature. The mixture was added to TZM-bl cells (10^4/well) and incubated 48 h at 37°C. The luciferase activity was measured using luciferase assay reagents and a Luminescence Counter (Promega).

[5] = system: wild-type HIV-1NL4-3; type: cell-based
Experimental: The inhibition of peptides on HIV-1 replication was determined by a molecular cloned wild-type HIV-1NL4–3. In brief, the virus stock was harvested and quantified 48 h post-transfection. 100 TCID50 viruses were used to infect TZM-bl cells in the presence or absence of serially diluted peptides. Two days post-infection, the cells were harvested and lysed in reporter lysis buffer and the luciferase activity was measured as described above.

[6] = system: HIV-1 NL4-3 WT; test: Inhibition of T20-resistant HIV-1 variants panel: WT; type: cell-based
Experimental: as §1

[7] = system: HIV-1 NL4-3 I37T; test: Inhibition of T20-resistant HIV-1 variants: I37T; type: cell-based
Experimental: as §1

[8] = system: HIV-1 NL4-3 V38A; test: Inhibition of T20-resistant HIV-1 variants: V38A; type: cell-based
Experimental: as §1

[9] = system: HIV-1 NL4-3 V38M; test: Inhibition of T20-resistant HIV-1 variants: V38M; type: cell-based
Experimental: as §1

[10] = system: HIV-1 NL4-3 Q40H; test: Inhibition of T20-resistant HIV-1 variants: Q40H; type: cell-based
Experimental: as §1

[11] = system: HIV-1 NL4-3 N43K; test: Inhibition of T20-resistant HIV-1 variants: N43K; type: cell-based
Experimental: as §1

[12] = system: HIV-1 NL4-3 D36S/V38M; test: Inhibition of T20-resistant HIV-1 variants: D36S/V38M; type: cell-based
Experimental: as §1

[13] = system: HIV-1 NL4-3 I37T/N43K; test: Inhibition of T20-resistant HIV-1 variants: I37T/N43K; type: cell-based
Experimental: as §1

[14] = system: HIV-1 NL4-3 V38A/N42T; test: Inhibition of T20-resistant HIV-1 variants: V38A/N42T; type: cell-based
Experimental: as §1

[15] = mean ± SD of three independent experiments, SD

T1 sequence (P04578 546-581): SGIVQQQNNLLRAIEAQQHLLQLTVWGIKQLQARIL
T2 sequence (P04578 546-581): as above

SMILES: CC[C@H](C)[C@H](NC(=O)[C@H](CC(C)C)NC(=O)[C@H](CCC(=O)O)NC(=O)[C@H](CCC(=O)O)NC(=O)[C@@H](NC(=O)[C@H](CCCCN)NC(=O)[C@H](CCCCN)NC(=O)[C@@H](NC(=O)[C@H](Cc1ccc(O)cc1)NC(=O)[C@H](CCC(=O)O)NC(=O)[C@H](CCC(=O)O)NC(=O)[C@@H](NC(=O)[C@H](CCCCN)NC(=O)[C@H](CCCCN)NC(=O)[C@H](CC(=O)O)NC(=O)[C@H](Cc1c[nH]c2ccccc12)NC(=O)[C@H](CCC(=O)O)NC(=O)[C@H](CCC(=O)O)NC(=O)[C@H](Cc1c[nH]c2ccccc12)NC(=O)[C@@H](NC(=O)[C@H](CCSC)NC(C)=O)[C@@H](C)O)[C@@H](C)CC)[C@@H](C)O)[C@@H](C)CC)C(=O)N[C@@H](CCCCN)C(=O)N[C@@H](CCCCN)C(=O)N[C@@H](CO)C(=O)N[C@@H](CCC(=O)O)C(=O)N[C@@H](CCC(=O)O)C(=O)N[C@@H](CCC(N)=O)C(=O)N[C@@H](CCC(N)=O)C(=O)N[C@@H](CCCCN)C(=O)N[C@@H](CCCCN)C(=O)N[C@@H](CC(N)=O)C(N)=O [MT-SC29EK] (Ac-MTWEEWDKKIEEYTKKIEELIKKSEEQQKKN-NH2)
- Tm (midpoint of the thermal unfolding transition) of 6-HB [1]: 79.1 °C
- Kd ([2]; 1 mM N36 injected into 100 μM peptide, read-out: binding constant (K) (converted)): 15.5 nM
- fold increase of K value compared to SC29EK [2]: 4.7 fold
- fold increase of 6-HB blocking potency over SC29EK [3]: 23 fold
- IC50 ([3]; biotinylated-C34 0.1 μM, N36 0.1 μM, 30 min room temperature, 3 independent experiments): 600 nM
- fold increased potency over SC29EK, entry [4]: 3.1 fold
- IC50 ([4]; 100 TCID50, TZM-bl cells, 48 h, luciferase, mean ± SD of three independent experiments, SD, read-out: IC50 Entry): 0.7 nM
- fold increase of potency over SC29EK, replication ([5]; wild-type HIV-1NL4-3): 4.5 fold
- IC50 ([5]; wild-type HIV-1NL4-3, 100 TCID50, TZM-bl cells, two days, luciferase, mean ± SD of three independent experiments, SD, read-out: IC50 Replication): 0.2 nM
- n-fold relative to the IC50 of the wild-type (WT) virus [6]: 1
- IC50 [6, 15]: 0.6 ± 0.1 nM
- n-fold relative to the IC50 of the wild-type (WT) virus [7]: 1.3
- IC50 [7, 15]: 0.8 ± 0.2 nM
- n-fold relative to the IC50 of the wild-type (WT) virus [8]: 1
- IC50 [8, 15]: 0.6 ± 0.1 nM
- n-fold relative to the IC50 of the wild-type (WT) virus [9]: 2.8
- IC50 [9, 15]: 1.7 nM
- n-fold relative to the IC50 of the wild-type (WT) virus [10]: 1.3
- IC50 [10, 15]: 0.8 ± 0.1 nM
- n-fold relative to the IC50 of the wild-type (WT) virus [11]: 12
- IC50 [11, 15]: 7.2 ± 0.2 nM
- n-fold relative to the IC50 of the wild-type (WT) virus [12]: 2
- IC50 [12, 15]: 1.2 nM
- n-fold relative to the IC50 of the wild-type (WT) virus [13]: 35.3
- IC50 [13, 15]: 21.2 ± 4.4 nM
- n-fold relative to the IC50 of the wild-type (WT) virus [14]: 1
- IC50 [14, 15]: 0.6 nM
